Laboratory results: patent publication US8835425B2, “Use of selective GABA A α5 negative allosteric modulators for the treatment of central nervous system conditions” (Hoffmann-La Roche Inc., priority 2010, dated 2014)
Where two headings read alike, the source gives them in different places.

Tests used:
Ts65Dn and control mice [1] = experiment: Motor coordination: rotarod; type: in vivo; settings: mice of either genotype, 20 mg/kg p.o. chronic
Method: (§1) For mice studies, active pharmaceutical compounds of present invention were formulated in chocolate-milk (Puleva, Barcelona, Spain). Active pharmaceutical compounds of present invention or vehicle were administered p.o. at a dose of 20 mg/kg for six weeks. Their administration was prolonged during the 30 days of the behavioral assessment.
Motor coordination was evaluated using a rotarod device (Ugo Basile; Comerio, Italy), which consists of a 37-cm-long, 3-cm diameter plastic rod that rotates at different speeds. In a single session, 4 trials with a maximum duration of 60 s each were performed. In the first three tests, the rod was rotated at constant speeds of 5, 25 and 50 rpm, respectively. The last trial consisted of an acceleration cycle, in which the rod rotated progressively faster, and the animal had to adapt to the growing demands of the test. The length of time that each animal stayed on the rotarod was recorded.

Ts65Dn and control mice [2] = experiment: Spontaneous activity: actimetry; type: in vivo; settings: 20 mg/kg p.o. chronic, vs vehicle
Method: as §1
In this test the circadian variation of the animals' spontaneous locomotor activity during a complete light-dark cycle of 24 hours was evaluated. The apparatus is a device (Acti-system II, Panlab, Barcelona) that detects the changes produced in a magnetic field by the movement of the mice. It registers the movements of animals during a continuous 24 hour cycle (12 hours of light and 12 hours of darkness).

Ts65Dn and control mice [3] = experiment: Open field; type: in vivo; settings: mice of either genotype; for horizontal or vertical activity in open field: 20 mg/kg p.o. chronic; for anxiogenic effect (activity in the center of the open field): chronic administration
Method: as §1
Exploratory behavior and anxiety were assessed using a square-shaped open field (55 cm×55 cm, surrounded by a 25-cm-tall fence), divided into 25 equal squares. The animals were placed in the center of the field, and the number of vertical (rearing) activities and horizontal crossings (from square to square, subdivided into center vs. peripheral crossings) were scored in a single 5-min trial.

Ts65Dn and control mice [4] = experiment: Exploratory activity: hole board; type: in vivo; settings: 20 mg/kg p.o. chronic; for ABA index / Crossings / Number of Head-dippings / Rearings / Time exploring holes: hole board
Method: as §1
The hole board is a wooden box (32×32×30 cm) with four holes. The floor is divided into nine 10 cm squares. In a single 5 minute trial the number of explorations, the time spent exploring each hole, and overall activity in the apparatus were measured. A repetition index was also calculated (exploration of holes previously explored) as a function of the number of ABA alternations.

Ts65Dn and control mice [5] = experiment: Spatial learning: Morris water maze; type: in vivo; settings: 20 mg/kg p.o. chronic; for Ts65Dn mice performance in MWM acquisition sessions / control mice performance in MWM acquisition sessions: vs vehicle; for latency to reach the platform during cued sessions: in Ts65Dn but not in control mice
Method: as §1
To evaluate spatial learning the Morris Water Maze was used. The apparatus was a circular tank of 110 cm in diameter, full of water (22-24° C.) made opaque by the addition of powdered milk. Inside the tank, a platform was hidden 1 cm below the water level. Animals were tested at the end of the treatment period in 12 consecutive daily sessions: 8 acquisition sessions (platform submerged), followed by 4 cued sessions (platform visible). All trials were videotaped with a camera located 2 m above the water level. A SMART computerized tracking system (Panlab S. A., Barcelona, Spain) was used to analyze the mouse trajectories, measure escape latency, distance traveled, and swimming speed for each animal in each trial.
In the acquisition sessions (S1-S8), the platform was hidden 1 cm below the water level. From one daily session to the next, the platform was placed in a different location (E, SW, center, and NW); each position was used once every four consecutive daily sessions. Each of the 8 acquisition and 4 cued sessions (one session per day) consisted of four pairs of trials, 30-45 min apart. For each trial pair, the mice were randomly started from one of four positions (N, S, E, W), which was held constant for both trials. The first trial of a pair was terminated when the mouse located the platform or when 60 s had elapsed; the second trial commenced following a period of 20 s, during which the animal was allowed to stay on the platform. Several fixed cues outside of the maze were constantly visible from the pool.
During the cued sessions the platform was visible: the water level was 1 cm below the platform, and its position was indicated with a flag. Eight trials were performed during each session, following the same experimental procedure as in the acquisition sessions.

human GABA A α5β3γ2 = human GABA A α5β3γ2 (Homo sapiens, UniProt P18507+P31644); experiment: [3H]flumazenil competition binding, HEK293 cells expressing human α5β3γ2; set-up: expressed in transfected cells; host or cells: HEK293
human GABA A α1β2/3γ2 = human GABA A α1β2/3γ2 (Homo sapiens, UniProt P14867+P18507); experiment: [3H]flumazenil competition binding, HEK293 cells expressing human α1β2/3γ2; set-up: expressed in transfected cells; host or cells: HEK293; settings: for Ki: [3H]flumazenil competition, human α1β2/3γ2, read-out: hKi α1; for hKi α1/hKi α5: binding selectivity ratio
human GABA A α2β3γ2 = human GABA A α2β3γ2 (Homo sapiens, UniProt P18507+P47869); experiment: [3H]flumazenil competition binding, HEK293 cells expressing human α2β3γ2; set-up: expressed in transfected cells; host or cells: HEK293; settings: for hKi α2/hKi α5: binding selectivity ratio
human GABA A α3β3γ2 = human GABA A α3β3γ2 (Homo sapiens, UniProt P18507+P34903); experiment: [3H]flumazenil competition binding, HEK293 cells expressing human α3β3γ2; set-up: expressed in transfected cells; host or cells: HEK293; settings: for hKi α3/hKi α5: binding selectivity ratio

Q: For `FC(F)c1ncn2c1Cn1ncnc1-c1cc(Br)ccc1-2` [Compound 8581, 3-Bromo-10-difluoromethyl-9H-imidazo[1,5-a][1,2,4]triazolo[1,5-d][1,4]benzodiazepine], which “motor coordination in the rotarod” value (Ts65Dn and control mice [1]) is on record?
A: The value was “not modified”.

Q: What about the “spontaneous activity in home cage, dark or light phase” value (Ts65Dn and control mice [2]) of the same molecule?
A: The value was “did not differ in the amount of spontaneous activity”.

Q: What about the “horizontal or vertical activity in open field” value (Ts65Dn and control mice [3]) of the same molecule?
A: The value was “did not significantly affect”.

Q: And the “anxiogenic effect (activity in the center of the open field)” value (Ts65Dn and control mice [3])?
A: The value was “did not produce an anxiogenic effect”.

Q: What about the “hyperactivity (crossings) of Ts65Dn mice in hole board” value (Ts65Dn and control mice [4]; Ts65Dn mice) of the same molecule?
A: Its value is “reduced this hyperactivity”.

Q: What about the “normalization of ABA index of Ts65Dn mice” value (Ts65Dn and control mice [4]; Ts65Dn mice) of the same molecule?
A: The value was “normalized”.

Q: And the ABA index (Ts65Dn and control mice [4]; Ts65Dn mice)?
A: Its ABA index is 3.89.

Q: What about the Crossings (Ts65Dn and control mice [4]; Ts65Dn mice) of the same molecule?
A: The Crossings was 106.11.

Q: And the “Number of Head-dippings” value (Ts65Dn and control mice [4]; Ts65Dn mice)?
A: The value was 18.22.

Q: And the Rearings (Ts65Dn and control mice [4]; Ts65Dn mice)?
A: The Rearings was 20.67.

Q: And the Time exploring holes (Ts65Dn and control mice [4]; Ts65Dn mice)?
A: The Time exploring holes was 26.28.

Q: What about the ABA index (Ts65Dn and control mice [4]; control mice) of the same molecule?
A: The ABA index was 2.64.

Q: What about the Crossings (Ts65Dn and control mice [4]; control mice) of the same molecule?
A: The Crossings was 73.27.

Q: What about the “Number of Head-dippings” value (Ts65Dn and control mice [4]; control mice) of the same molecule?
A: The value was 14.82.

Q: What about the Rearings (Ts65Dn and control mice [4]; control mice) of the same molecule?
A: Its Rearings is 17.73.

Q: And the Time exploring holes (Ts65Dn and control mice [4]; control mice)?
A: The Time exploring holes was 30.43.

Q: What about the “difference between Ts65Dn and control learning curves in MWM” value (Ts65Dn and control mice [5]) of the same molecule?
A: The value was “reduced”.

Q: And the “Ts65Dn mice performance in MWM acquisition sessions” value (Ts65Dn and control mice [5])?
A: Its value is “significantly improved Ts65Dn mice performance”.

Q: And the “control mice performance in MWM acquisition sessions” value (Ts65Dn and control mice [5])?
A: The value was “did not significantly affect control mice performance”.

Q: What about the “latency to reach the platform during cued sessions” value (Ts65Dn and control mice [5]) of the same molecule?
A: The value was “reduced the latency to reach the platform”.

Q: What about the Ki (human GABA A α5β3γ2) of the same molecule?
A: The Ki was 4.6 nM.

Q: And the Ki (human GABA A α1β2/3γ2)?
A: Its Ki is 174 nM.

Q: What about the “hKi α1/hKi α5” value (human GABA A α1β2/3γ2) of the same molecule?
A: Its value is 38.

Q: What about the Ki (human GABA A α2β3γ2; [3H]flumazenil competition, human α2β3γ2, read-out: hKi α2) of the same molecule?
A: The Ki was 185 nM.

Q: What about the “hKi α2/hKi α5” value (human GABA A α2β3γ2) of the same molecule?
A: Its value is 40.

Q: What about the Ki (human GABA A α3β3γ2) of the same molecule?
A: Its Ki is 79.6 nM.

Q: And the “hKi α3/hKi α5” value (human GABA A α3β3γ2)?
A: The value was 17.

Q: For `Cc1onc(-c2ccc(F)cc2)c1COc1ccc(C(=O)N2CCS(=O)(=O)CC2)cn1` [Compound R1, (1,1-Dioxo-1,6-thiomorpholin-4-yl)-{6-[3-(4-fluoro-phenyl)-5-methyl-isoxazol-4-ylmethoxy]-pyridin-3-yl}-methanone], which “motor coordination in the rotarod” value (Ts65Dn and control mice [1]) is on record?
A: Its value is “not modified”.

Q: And the “spontaneous activity in home cage, dark or light phase” value (Ts65Dn and control mice [2])?
A: Its value is “did not differ in the amount of spontaneous activity”.

Q: What about the “horizontal or vertical activity in open field” value (Ts65Dn and control mice [3]) of the same molecule?
A: The value was “did not significantly affect”.

Q: What about the “anxiogenic effect (activity in the center of the open field)” value (Ts65Dn and control mice [3]) of the same molecule?
A: Its value is “did not produce an anxiogenic effect”.

Q: What about the “hyperactivity (crossings) of Ts65Dn mice in hole board” value (Ts65Dn and control mice [4]; Ts65Dn mice) of the same molecule?
A: Its value is “reduced this hyperactivity”.

Q: What about the ABA index (Ts65Dn and control mice [4]; Ts65Dn mice) of the same molecule?
A: Its ABA index is 4.25.

Q: And the Crossings (Ts65Dn and control mice [4]; Ts65Dn mice)?
A: Its Crossings is 93.19.

Q: And the “Number of Head-dippings” value (Ts65Dn and control mice [4]; Ts65Dn mice)?
A: Its value is 20.50.

Q: And the Rearings (Ts65Dn and control mice [4]; Ts65Dn mice)?
A: Its Rearings is 13.19.

Q: What about the Time exploring holes (Ts65Dn and control mice [4]; Ts65Dn mice) of the same molecule?
A: Its Time exploring holes is 37.58.

Q: What about the ABA index (Ts65Dn and control mice [4]; control mice) of the same molecule?
A: Its ABA index is 4.06.

Q: And the Crossings (Ts65Dn and control mice [4]; control mice)?
A: Its Crossings is 72.13.

Q: And the “Number of Head-dippings” value (Ts65Dn and control mice [4]; control mice)?
A: The value was 16.13.

Q: And the Rearings (Ts65Dn and control mice [4]; control mice)?
A: The Rearings was 13.86.

Q: What about the Time exploring holes (Ts65Dn and control mice [4]; control mice) of the same molecule?
A: The Time exploring holes was 28.28.

Q: What about the “difference between Ts65Dn and control learning curves in MWM” value (Ts65Dn and control mice [5]) of the same molecule?
A: Its value is “reduced”.

Q: And the “Ts65Dn mice performance in MWM acquisition sessions” value (Ts65Dn and control mice [5])?
A: Its value is “improved Ts65Dn mice cognition”.

Q: And the “control mice performance in MWM acquisition sessions” value (Ts65Dn and control mice [5])?
A: Its value is “did not significantly affect control mice performance”.

Q: What about the “latency to reach the platform during cued sessions” value (Ts65Dn and control mice [5]) of the same molecule?
A: Its value is “reduced the latency to reach the platform”.

Q: And the Ki (human GABA A α5β3γ2; [3H]flumazenil competition, human α5β3γ2, read-out: hKi α5)?
A: The Ki was 4.7 nM.

Q: And the Ki (human GABA A α1β2/3γ2)?
A: The Ki was 985 nM.

Q: What about the “hKi α1/hKi α5” value (human GABA A α1β2/3γ2) of the same molecule?
A: The value was 209.

Q: What about the Ki (human GABA A α2β3γ2) of the same molecule?
A: The Ki was 502 nM.

Q: And the “hKi α2/hKi α5” value (human GABA A α2β3γ2)?
A: The value was 107.

Q: What about the Ki (human GABA A α3β3γ2) of the same molecule?
A: Its Ki is 489 nM.

Q: What about the “hKi α3/hKi α5” value (human GABA A α3β3γ2) of the same molecule?
A: Its value is 104.
